According to US10377770B2 (Novartis AG, priority 2015, dated 2019):

These compounds were tested against C-Raf FL (full length CRAF with Y340E and Y341E activating mutations, co-expressed with h14-3-3 zeta) (Homo sapiens (Human), UniProt P04049, Y340E/Y341E) (assay: In vitro Raf activity determination, AlphaScreen p-MEK readout, c-Raf (C-Raf FL)). Settings: c-Raf approximately 4 nM, ATP 1 μM, pre-incubation 60 minutes, reaction 1 hour.
Assay type: biochemical
In short: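 Full-length C-Raf (~4 nM) pre-incubated 60 min at room temperature with compound and kinase-dead biotinylated MEK1 (~10 nM) in Tris pH 7.5, 15 mM MgCl2, BSA, DTT. Reaction started with 1 μM ATP and run 1 h at room temperature. Phospho-MEK detected by AlphaScreen with anti-p-MEK antibody.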

Sequence of C-Raf FL (full length CRAF with Y340E and Y341E activating mutations, co-expressed with h14-3-3 zeta) (P04049 whole entry Y340E/Y341E): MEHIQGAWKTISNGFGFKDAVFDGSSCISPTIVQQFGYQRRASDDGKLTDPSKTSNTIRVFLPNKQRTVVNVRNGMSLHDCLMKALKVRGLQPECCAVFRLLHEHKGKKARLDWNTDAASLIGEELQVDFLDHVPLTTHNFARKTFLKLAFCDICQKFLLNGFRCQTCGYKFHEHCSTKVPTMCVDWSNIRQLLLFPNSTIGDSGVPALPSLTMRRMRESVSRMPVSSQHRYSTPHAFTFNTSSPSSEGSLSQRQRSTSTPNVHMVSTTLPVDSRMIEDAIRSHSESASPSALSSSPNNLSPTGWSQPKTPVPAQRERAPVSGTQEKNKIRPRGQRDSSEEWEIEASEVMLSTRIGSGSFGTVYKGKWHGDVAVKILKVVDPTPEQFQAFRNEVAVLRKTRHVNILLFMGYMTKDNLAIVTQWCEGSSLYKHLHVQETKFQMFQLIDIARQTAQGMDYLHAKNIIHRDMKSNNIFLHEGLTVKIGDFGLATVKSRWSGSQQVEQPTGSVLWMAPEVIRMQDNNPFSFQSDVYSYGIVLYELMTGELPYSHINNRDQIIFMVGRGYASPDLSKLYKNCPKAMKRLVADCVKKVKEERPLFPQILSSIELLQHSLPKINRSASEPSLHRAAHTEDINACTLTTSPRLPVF
Sequence of C-Raf FL (full length CRAF with Y340E and Y341E activating mutations, co-expressed with h14-3-3 zeta) (P63104 whole entry partner): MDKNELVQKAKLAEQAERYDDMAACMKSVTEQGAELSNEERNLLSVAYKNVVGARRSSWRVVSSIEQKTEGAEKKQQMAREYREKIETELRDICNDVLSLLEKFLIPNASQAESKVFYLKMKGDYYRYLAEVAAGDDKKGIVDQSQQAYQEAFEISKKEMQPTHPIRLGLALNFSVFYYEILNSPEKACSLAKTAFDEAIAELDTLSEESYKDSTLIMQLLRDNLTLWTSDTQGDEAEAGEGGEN

Compound	IC50 [nM]
CCN1C(=O)[C@@H]2COCC[C@H]2c2cc(-c3cc(NC(=O)c4ccnc(C(C)(C)F)c4)ccc3C)cnc21 [Example 254, N-(3-((4aS, 10bR)-6-ethyl-5-oxo-2,4,4a,5,6,10b-hexahydro-1H-pyrano[3,4-c][1,8]naphthyridin-9-yl)-4-methylphenyl)-2-(2-fluoropropan-2-yl)isonicotinamide]	0.2
Cc1ccc(NC(=O)c2ccnc(C(C)(F)F)c2)cc1-c1ccc2c(c1)N1CCOC[C@H]1[C@@](C)(C#N)C2 [Example 373, N-(3-((4aR,5S)-5-cyano-5-methyl-1,2,4,4a,5,6-hexahydro-[1,4]oxazino[4,3-a]quinolin-9-yl)-4-methylphenyl)-2-(1,1-difluoroethyl)isonicotinamide]	0.4
CC(=O)NC1CC2COCCN2c2cc(-c3cc(NC(=O)c4ccnc(C(F)(F)F)c4)ccc3C)ccc21 (racemic) [Example 29, N-(3-(6-acetamido-1,2,4,4a,5,6-hexahydro-[1,4]oxazino[4,3-a]quinolin-9-yl)-4-methylphenyl)-2-(trifluoromethyl)isonicotinamide]	0.17
Cc1ccc(NC(=O)c2cnnc(C(F)(F)F)c2)cc1-c1cc2c(cc1F)C[C@](F)(CO)[C@H]1COCCN21 [Example 477, N-(3-((4aR,5R)-5,8-difluoro-5-(hydroxymethyl)-1,2,4,4a,5,6-hexahydro-[1,4]oxazino[4,3-a]quinolin-9-yl)-4-methylphenyl)-6-(trifluoromethyl) pyridazine-4-carboxamide]	0.1
Cc1ccc(NC(=O)c2cnnc(C(F)(F)F)c2)cc1-c1cc2c(cc1F)C[C@@](F)(CO)[C@@H]1COCCN21 [Example 482, N-(3-((4aS,5S)-5,8-difluoro-5-(hydroxymethyl)-1,2,4,4a,5,6-hexahydro-[1,4]oxazino[4,3-a]quinolin-9-yl)-4-methylphenyl)-6-(trifluoromethyl) pyridazine-4-carboxamide]	0.3
Cc1ncc(NC(=O)c2ccnc(C(C)(C)F)c2)cc1-c1cnc2c(c1)[C@@H]1CCOC[C@H]1C(=O)N2CCO [Example 260, 2-(2-fluoropropan-2-yl)-N-(5-((4aS, 10bR)-66-(2-hydroxyethyl)-5-oxo-2,4,4a,5,6,10b-hexahydro-1H-pyrano[3,4-c][1,8]naphthyridin-9-yl)-6-methylpyridin-3-yl)isonicotinamide]	0.1
CCN1C(=O)N2COCCC2(C)c2cc(-c3cc(NC(=O)c4ccnc(C(F)(F)F)c4)ccc3C)ccc21 (stereo not shown) [Example 242, N-(3-(7-ethyl-11b-methyl-6-oxo-1,2,4,6,7,11b-hexahydro-[1,3]oxazino[3,4-c]quinazolin-10-yl)-4-methylphenyl)-2-(trifluoromethyl) isonicotinamide]	0.3
CCN1C(=O)C2COCC[C@]2(C)c2cc(-c3cc(NC(=O)c4cncc(C(F)(F)F)c4)ccc3C)cnc21 (stereo in doubt) [Example 345, N-(3-((4a,10b-trans)-6-ethyl-10b-methyl-5-oxo-1,4,4a,5,6,10b-hexahydro-2H-pyrano[3,4-c][1,8]naphthyridin-9-yl)-4-methylphenyl)-5-(trifluoromethyl)nicotinamide]	0.8
Cc1ccc(NC(=O)c2ccnc(C(C)(F)F)c2)cc1-c1ccc2c(c1)N1CCOC[C@]1(C)C[C@H]2O (racemic) [Example 27]	0.017
Cc1ncc(NC(=O)c2cccc(C(F)(F)F)c2)cc1-c1cnc2c(c1)N1CCOC[C@@H]1[C@@H](CO)C2 [Example 121, N-(5-((4aS,5S)-5-(hydroxymethyl)-1,2,4,4a,5,6-hexahydro-[1,4]oxazino[4,3-a][1,5]naphthyridin-9-yl)-6-methylpyridin-3-yl)-3-(trifluoromethyl)benzamide]	0.0095
CCNC(=O)C1Cc2ccc(-c3cc(NC(=O)c4cccc(C(F)(F)F)c4)cnc3C)cc2N2CCOCC12 (racemic) [Example 75, (rac)-N-ethyl-9-(2-methyl-5-(3-(trifluoromethyl)benzamido)pyridin-3-yl)-1,2,4,4a,5,6-hexahydro-[1,4]oxazino[4,3-a]quinoline-5-carboxamide]	0.48
Cc1ccc(NC(=O)c2ccnc(C(C)(F)F)c2)cc1-c1ccc2c(c1)N1CCOC[C@@H]1[C@@](F)(CO)C2 [Example 370, 2-(1,1-difluoroethyl)-N-(3-((4aR,5R)-5-fluoro-5-(hydroxymethyl)-1,2,4,4a,5,6-hexahydro-[1,4]oxazino[4,3-a]quinolin-9-yl)-4-methylphenyl)isonicotinamide]	0.1
Cc1ncc(NC(=O)c2cccc(C(F)(F)F)c2)cc1-c1cnc2c(c1)C1(C)CCOCCC1C(=O)N2CCO (single isomer, unassigned) [Example 359, N-(5-((5a,11b-trans)-7-(2-hydroxyethyl)-11b-methyl-6-oxo-1,2,4,5,5 a,6,7,11b-octahydrooxepino[4,5-c][1,8]naphthyridin-10-yl)-6-methylpyridin-3-yl)-3-(trifluoromethyl)benzamide]	0.3
CCN1C(=O)O[C@H]2COCC[C@@H]2c2cc(-c3cc(NC(=O)c4ccnc(C(F)(F)F)c4F)ccc3C)cnc21 [Example 304, N-(3-((4aR, 11bR)-7-ethyl-6-oxo-2,4,4a,6,7,11b-hexahydro-1H-pyrano[4,3-f]pyrido[2,3-d][1,3]oxazepin-10-yl)-4-methylphenyl)-3-fluoro-2-(trifluoromethyl) isonicotinamide]	0.5
Cc1ccc(NC(=O)c2ccnc(C(F)(F)F)c2)cc1-c1ccc2c(c1)N1CCOCC1C1(COC1)C2 (racemic) [Example 54, (rac)-N-(4-methyl-3-(2,4,4a,6-tetrahydro-1H-spiro[[1,4]oxazino[4,3-a]quinoline-5,3′-oxetan]-9-yl)phenyl)-2-(trifluoromethyl)isonicotinamide]	0.013
CCN1C(=O)C2COCCC2(C)c2cc(-c3cc(NC(=O)c4ccnc(C(F)(F)F)c4F)ccc3C)cnc21 (stereo not drawn) [Example 348, N-(3-((4a,10b- trans)-6-ethyl-10b-methyl-5-oxo-2,4,4a,5,6,10b-hexahydro-1H-pyrano[3,4-c][1,8]naphthyridin-9-yl)-4-methylphenyl)-3-fluoro-2-(trifluoromethyl) isonicotinamide]	0.7
Cc1ccc(NC(=O)c2ccnc(C(F)(F)F)c2)cc1-c1ccc2c(c1)N1CCOC[C@H]1C[C@H]2O (racemic) [Example 3, (rac)-(trans)-N-(3-(6-hydroxy-1,2,4,4a,5,6-hexahydro-[1,4]oxazino[4,3-a]quinolin-9-yl)-4-methylphenyl)-2-(trifluoromethyl)isonicotinamide]	0.031
Cc1ccc(NC(=O)c2ccnc(C(C)(F)F)c2)cc1-c1ccc2c(c1)N1CCOC[C@@H]1[C@](F)(CO)C2 [Example 372, 2-(1,1-difluoroethyl)-N-(3-((4aR,5S)-5-fluoro-5-(hydroxymethyl)-1,2,4,4a,5,6-hexahydro-[1,4]oxazino[4,3-a]quinolin-9-yl)-4-methylphenyl)isonicotinamide]	0.3
Cc1ccc(NC(=O)c2cnnc(C(F)(F)F)c2)cc1-c1cnc2c(c1)N1CCOC[C@H]1CC(=O)N2CCO [Example 323, (R)-N-(3-(7-(2-hydroxyethyl)-6-oxo-2,4,4a,5,6,7-hexahydro-1H-[1,4]oxazino[4,3-d]pyrido[2,3-b][1,4]diazepin-10-yl)-4-methylphenyl)-6-(trifluoromethyl) pyridazine-4-carboxamide]	0.2
